Results: article PMC5218480 (PLoS ONE, 2017)

Test system: MV-4-11 cells
Test: Gene expression microarray analysis (Affymetrix PrimeView) and GSEA
Assay type: cell-based, human
Parameters: RFU PODN (11730768_x_at) / Fold change /veh PODN (11730768_x_at) / RFU LINC00158 (11744669_a_at) / Fold change /veh LINC00158 (11744669_a_at) / RFU DUSP10 (11751237_a_at) / Fold change /veh DUSP10 (11751237_a_at) / RFU ID3 (11757404_x_at) / Fold change /veh ID3 (11757404_x_at) / RFU PLEKHG5 (11737974_s_at) / Fold change /veh PLEKHG5 (11737974_s_at) / RFU LRRC4B (11730491_at) / Fold change /veh LRRC4B (11730491_at) / RFU GIMAP4 (11747438_a_at) / Fold change /veh GIMAP4 (11747438_a_at) / RFU KRT8 (11758183_x_at) / Fold change /veh KRT8 (11758183_x_at) / RFU CNN1 (11734310_a_at) / Fold change /veh CNN1 (11734310_a_at) / RFU VPS37D (11726825_at) / Fold change /veh VPS37D (11726825_at) / RFU C10orf10 (11716522_x_at) / Fold change /veh C10orf10 (11716522_x_at) / RFU KIR2DL2 /// KIR2DL4 /// KIR2DL5A /// KIR2DL5B /// KIR2DS1 /// KIR2DS2 /// KIR2DS3 /// KIR2DS4 /// KIR3DL3 /// KIR3DL3 /// KIR3DS1 (11738374_at) / Fold change /veh KIR2DL2 /// KIR2DL4 /// KIR2DL5A /// KIR2DL5B /// KIR2DS1 /// KIR2DS2 /// KIR2DS3 /// KIR2DS4 /// KIR3DL3 /// KIR3DL3 /// KIR3DS1 (11738374_at) / RFU C1QL1 (11718748_at) / Fold change /veh C1QL1 (11718748_at) / RFU TMPRSS4 (11747572_a_at) / Fold change /veh TMPRSS4 (11747572_a_at) / RFU HAMP (11756126_x_at) / Fold change /veh HAMP (11756126_x_at) / RFU RNFT2 (11725882_a_at) / Fold change /veh RNFT2 (11725882_a_at) / RFU NR4A2 (11747474_a_at) / Fold change /veh NR4A2 (11747474_a_at) / RFU ABCC12 (11746883_a_at) / Fold change /veh ABCC12 (11746883_a_at) / RFU TMEM136 (11760407_x_at) / Fold change /veh TMEM136 (11760407_x_at) / RFU CLDN22 /// WWC2 (11732394_at) / Fold change /veh CLDN22 /// WWC2 (11732394_at) / RFU HLA-DPB1 (11760878_x_at) / Fold change /veh HLA-DPB1 (11760878_x_at) / RFU SPINT1 (11716480_a_at) / Fold change /veh SPINT1 (11716480_a_at) / RFU GAP43 (11754022_s_at) / Fold change /veh GAP43 (11754022_s_at) / RFU A4GNT (11735810_at) / Fold change /veh A4GNT (11735810_at) / RFU PRB3 (11715151_x_at) / Fold change /veh PRB3 (11715151_x_at) / RFU TUBB4B (11761932_at) / Fold change /veh TUBB4B (11761932_at) / RFU CAPN14 (11732068_a_at) / Fold change /veh CAPN14 (11732068_a_at) / RFU TMCC2 (11721928_a_at) / Fold change /veh TMCC2 (11721928_a_at) / RFU IRGQ (11745062_a_at) / Fold change /veh IRGQ (11745062_a_at) / RFU FAM174B (11720279_a_at) / Fold change /veh FAM174B (11720279_a_at) / RFU TMPRSS4 (11748680_a_at) / Fold change /veh TMPRSS4 (11748680_a_at) / RFU FAM212B (11763350_a_at) / Fold change /veh FAM212B (11763350_a_at) / RFU PLEKHG5 (11743358_a_at) / Fold change /veh PLEKHG5 (11743358_a_at) / RFU ZSCAN30 (11745921_a_at) / Fold change /veh ZSCAN30 (11745921_a_at) / RFU CMKLR1 (11741424_a_at) / Fold change /veh CMKLR1 (11741424_a_at) / RFU LOC101060620 /// MAPK8IP1 (11723275_at) / Fold change /veh LOC101060620 /// MAPK8IP1 (11723275_at) / RFU SPTSSB (11747773_x_at) / Fold change /veh SPTSSB (11747773_x_at) / RFU PRSS12 (11739890_at) / Fold change /veh PRSS12 (11739890_at) / RFU BIN1 (11741810_x_at) / Fold change /veh BIN1 (11741810_x_at) / RFU WNT11 (11732464_a_at) / Fold change /veh WNT11 (11732464_a_at) / RFU C10orf10 (11716521_a_at) / Fold change /veh C10orf10 (11716521_a_at) / RFU C5orf56 (11738089_at) / Fold change /veh C5orf56 (11738089_at) / RFU CYB561 (11721691_x_at) / Fold change /veh CYB561 (11721691_x_at) / RFU ANKRD19P (11752326_a_at) / Fold change /veh ANKRD19P (11752326_a_at) / RFU OR2T12 /// OR2T33 /// OR2T8 (11738714_s_at) / Fold change /veh OR2T12 /// OR2T33 /// OR2T8 (11738714_s_at) / RFU VCAN (11748164_a_at) / Fold change /veh VCAN (11748164_a_at) / RFU JSRP1 (11732532_at) / Fold change /veh JSRP1 (11732532_at) / RFU KRTAP10-11 (11738290_x_at) / Fold change /veh KRTAP10-11 (11738290_x_at) / RFU MYO3A (11730013_a_at) / Fold change /veh MYO3A (11730013_a_at) / RFU EBF3 (11725865_a_at) / Fold change /veh EBF3 (11725865_a_at) / RFU CAMK2N1 (11719241_x_at) / Fold change /veh CAMK2N1 (11719241_x_at) / RFU C5orf56 (11738088_a_at) / Fold change /veh C5orf56 (11738088_a_at) / RFU OLFML3 (11715873_a_at) / Fold change /veh OLFML3 (11715873_a_at) / RFU LOC100653217 /// NTM (11731650_a_at) / Fold change /veh LOC100653217 /// NTM (11731650_a_at) / RFU MAPK11 (11762145_a_at) / Fold change /veh MAPK11 (11762145_a_at) / RFU FIZ1 (11724087_x_at) / Fold change /veh FIZ1 (11724087_x_at) / RFU OASL (11726364_x_at) / Fold change /veh OASL (11726364_x_at) / RFU SOX15 (11748057_x_at) / Fold change /veh SOX15 (11748057_x_at) / RFU CD79A (11719716_a_at) / Fold change /veh CD79A (11719716_a_at) / RFU HIST1H1D (11736915_at) / Fold change /veh HIST1H1D (11736915_at) / RFU CASKIN2 (11723855_a_at) / Fold change /veh CASKIN2 (11723855_a_at) / RFU LOC730098 (11760151_x_at) / Fold change /veh LOC730098 (11760151_x_at) / RFU OR4N2 (11742367_at) / Fold change /veh OR4N2 (11742367_at) / RFU PRRT2 (11749266_a_at) / Fold change /veh PRRT2 (11749266_a_at) / RFU SNX32 (11753110_a_at) / Fold change /veh SNX32 (11753110_a_at) / RFU CDHR5 (11726645_a_at) / Fold change /veh CDHR5 (11726645_a_at) / RFU RCAN1 (11760418_a_at) / Fold change /veh RCAN1 (11760418_a_at) / RFU FAM167A (11723789_a_at) / Fold change /veh FAM167A (11723789_a_at) / RFU FAM26E (11764081_at) / Fold change /veh FAM26E (11764081_at) / RFU ISYNA1 (11749810_s_at) / Fold change /veh ISYNA1 (11749810_s_at) / RFU ACY1 (11761880_at) / Fold change /veh ACY1 (11761880_at) / RFU 11764098_at / Fold change /veh 11764098_at / RFU SAMD14 (11745864_x_at) / Fold change /veh SAMD14 (11745864_x_at) / RFU NPB (11741838_a_at) / Fold change /veh NPB (11741838_a_at) / RFU TMPRSS6 (11731388_a_at) / Fold change /veh TMPRSS6 (11731388_a_at) / RFU KRTAP10-2 (11738614_at) / Fold change /veh KRTAP10-2 (11738614_at) / RFU ARHGAP8 /// PRR5-ARHGAP8 (11727945_x_at) / Fold change /veh ARHGAP8 /// PRR5-ARHGAP8 (11727945_x_at) / RFU KRTAP5-7 /// NADSYN1 (11734609_at) / Fold change /veh KRTAP5-7 /// NADSYN1 (11734609_at) / RFU RASL12 (11751679_a_at) / Fold change /veh RASL12 (11751679_a_at) / RFU CDKN2B (11736163_a_at) / Fold change /veh CDKN2B (11736163_a_at) / RFU PRF1 (11729649_at) / Fold change /veh PRF1 (11729649_at) / RFU, ZNF638 /// ZNF638-IT1 / Fold change vs veh, ZNF638 /// ZNF638-IT1 / RFU, PANK3 / Fold change vs veh, PANK3 / RFU, SH3YL1 / Fold change vs veh, SH3YL1 / RFU, ZEB2 / Fold change vs veh, ZEB2 / RFU, NRIP1 / Fold change vs veh, NRIP1 / RFU, PTTG1IP / Fold change vs veh, PTTG1IP / RFU, CAPN2 / Fold change vs veh, CAPN2 / RFU, MED14 / Fold change vs veh, MED14 / RFU, SNORA58 / Fold change vs veh, SNORA58 / RFU, C1orf63 / Fold change vs veh, C1orf63 / RFU, LRRFIP1 / Fold change vs veh, LRRFIP1 / RFU, NDUFAF7 / Fold change vs veh, NDUFAF7 / RFU, SLC12A2 / Fold change vs veh, SLC12A2 / RFU, IBTK / Fold change vs veh, IBTK / RFU, ESF1 / Fold change vs veh, ESF1 / Fold change vs veh, TMEM50B / RFU, TAOK1 / Fold change vs veh, TAOK1 / RFU, ACBD3 / Fold change vs veh, ACBD3 / RFU, TMA16 / Fold change vs veh, TMA16 / RFU, RWDD3 / Fold change vs veh, RWDD3 / RFU, BCAT1 / Fold change vs veh, BCAT1 / RFU, EDEM3 / Fold change vs veh, EDEM3 / RFU, TMEM33 / Fold change vs veh, TMEM33 / RFU, WDR75 / Fold change vs veh, WDR75 / RFU, AHCTF1 / Fold change vs veh, AHCTF1 / RFU, TFRC / Fold change vs veh, TFRC / RFU, ZDHHC17 / Fold change vs veh, ZDHHC17 / RFU, NOM1 / Fold change vs veh, NOM1 / RFU, ARL8B / Fold change vs veh, ARL8B / RFU, ZBTB11 / Fold change vs veh, ZBTB11 / RFU, TAMM41 / Fold change vs veh, TAMM41 / RFU, KIAA1704 /// LOC100996395 / Fold change vs veh, KIAA1704 /// LOC100996395 / RFU, ING1 / Fold change vs veh, ING1 / RFU, TRMT61B / Fold change vs veh, TRMT61B / RFU, FUBP3 / Fold change vs veh, FUBP3 / RFU, TP53 / Fold change vs veh, TP53 / RFU, TNKS2 / Fold change vs veh, TNKS2 / RFU, ZFP14 / Fold change vs veh, ZFP14 / RFU, ACTR2 / Fold change vs veh, ACTR2 / RFU, PPP3R1 / Fold change vs veh, PPP3R1 / RFU, PIK3R1 / Fold change vs veh, PIK3R1 / RFU, HNRNPA1 / Fold change vs veh, HNRNPA1 / RFU, RNF170 / Fold change vs veh, RNF170 / RFU, ZNF28 / Fold change vs veh, ZNF28 / RFU, RNGTT / Fold change vs veh, RNGTT / RFU, OGT / Fold change vs veh, OGT / RFU, BRD1 / Fold change vs veh, BRD1 / RFU, MARS / Fold change vs veh, MARS / RFU, ZNF655 / Fold change vs veh, ZNF655 / RFU, FAHD1 / Fold change vs veh, FAHD1 / RFU, BDP1 / Fold change vs veh, BDP1 / RFU, LRRCC1 / Fold change vs veh, LRRCC1 / RFU, ARID1A / Fold change vs veh, ARID1A / RFU, ZNF146 / Fold change vs veh, ZNF146 / RFU, ZNF330 / Fold change vs veh, ZNF330 / RFU, GPN3 / Fold change vs veh, GPN3 / RFU, C9orf123 / Fold change vs veh, C9orf123 / RFU, N4BP2L2 / Fold change vs veh, N4BP2L2 / RFU, ARFIP1 / Fold change vs veh, ARFIP1 / RFU, FAM179B / Fold change vs veh, FAM179B / RFU, BCL10 / Fold change vs veh, BCL10 / RFU, UHRF1BP1L / Fold change vs veh, UHRF1BP1L / RFU, BET1 / Fold change vs veh, BET1 / RFU, CNOT2 / Fold change vs veh, CNOT2 / RFU, ZNF268 / Fold change vs veh, ZNF268 / Fold change vs veh, ZNF507 / RFU, DGCR2 / Fold change vs veh, DGCR2 / RFU, WDSUB1 / Fold change vs veh, WDSUB1 / Fold change vs veh, HSP90B1 /// MIR3652 / RFU, ADSS / Fold change vs veh, ADSS / RFU, GK / Fold change vs veh, GK / RFU, ZNF148 / Fold change vs veh, ZNF148 / RFU, TAF9 / Fold change vs veh, TAF9 / RFU, SLC1A5 / Fold change vs veh, SLC1A5 / RFU, SLMO2 / Fold change vs veh, SLMO2 / RFU, ABCC4 / Fold change vs veh, ABCC4 / RFU, LOC101060439 /// RAP1B / Fold change vs veh, LOC101060439 /// RAP1B / RFU, RFX7 / Fold change vs veh, RFX7 / RFU, GTPBP10 / Fold change vs veh, GTPBP10 / RFU, CNEP1R1 / Fold change vs veh, CNEP1R1 / RFU, BIVM-ERCC5 /// ERCC5 / Fold change vs veh, BIVM-ERCC5 /// ERCC5 / RFU, ILF3 / Fold change vs veh, ILF3 / RFU 11762660_at / Fold change /veh 11762660_at / RFU VCAN (11757783_s_at) / Fold change /veh VCAN (11757783_s_at) / RFU DDX43 (11728927_at) / Fold change /veh DDX43 (11728927_at) / RFU KRT8 (11758188_x_at) / Fold change /veh KRT8 (11758188_x_at) / RFU NKD1 (11759106_at) / Fold change /veh NKD1 (11759106_at) / RFU SRD5A1 (11742802_a_at) / Fold change /veh SRD5A1 (11742802_a_at) / RFU TPSAB1 /// TPSB2 (11721975_s_at) / Fold change /veh TPSAB1 /// TPSB2 (11721975_s_at) / RFU GSTM3 (11746129_a_at) / Fold change /veh GSTM3 (11746129_a_at) / RFU IL23R (11737362_x_at) / Fold change /veh IL23R (11737362_x_at) / RFU TMEM51 (11727254_a_at) / Fold change /veh TMEM51 (11727254_a_at) / RFU PIWIL2 (11732686_x_at) / Fold change /veh PIWIL2 (11732686_x_at) / RFU ORM1 (11744905_x_at) / Fold change /veh ORM1 (11744905_x_at) / RFU CCDC152 (11743942_at) / Fold change /veh CCDC152 (11743942_at) / RFU ECM1 (11717891_a_at) / Fold change /veh ECM1 (11717891_a_at) / RFU IL23R (11748794_a_at) / Fold change /veh IL23R (11748794_a_at) / RFU TNFAIP8L3 (11732012_x_at) / Fold change /veh TNFAIP8L3 (11732012_x_at) / RFU MBOAT4 (11741988_at) / Fold change /veh MBOAT4 (11741988_at) / RFU 11764193_at / Fold change /veh 11764193_at / RFU TMEM53 (11763286_at) / Fold change /veh TMEM53 (11763286_at) / RFU MAGEB2 (11727129_at) / Fold change /veh MAGEB2 (11727129_at) / RFU TMEM200A (11744735_a_at) / Fold change /veh TMEM200A (11744735_a_at) / RFU CCDC152 (11751479_a_at) / Fold change /veh CCDC152 (11751479_a_at) / RFU FAM211A (11726209_a_at) / Fold change /veh FAM211A (11726209_a_at) / RFU RGS16 (11746705_a_at) / Fold change /veh RGS16 (11746705_a_at) / RFU VCAN (11755009_s_at) / Fold change /veh VCAN (11755009_s_at) / RFU RHOB (11743442_s_at) / Fold change /veh RHOB (11743442_s_at) / RFU RGS16 (11720943_a_at) / Fold change /veh RGS16 (11720943_a_at) / RFU RGS16 (11720944_at) / Fold change /veh RGS16 (11720944_at) / RFU, VPS4B / Fold change vs veh, VPS4B / RFU, CREB1 / Fold change vs veh, CREB1 / RFU, DNAJC13 / Fold change vs veh, DNAJC13 / RFU, GNAQ / Fold change vs veh, GNAQ / RFU, CDK5R1 / Fold change vs veh, CDK5R1 / RFU, ZRANB3 / Fold change vs veh, ZRANB3 / RFU, CUL4A / Fold change vs veh, CUL4A / RFU, CCNY / Fold change vs veh, CCNY / RFU, UFL1 / Fold change vs veh, UFL1 / RFU, COG3 / Fold change vs veh, COG3 / RFU, DIAPH2 / Fold change vs veh, DIAPH2 / RFU, SKA2 / Fold change vs veh, SKA2 / RFU, AFF3 / Fold change vs veh, AFF3 / RFU, LMF1 / Fold change vs veh, LMF1 / RFU, IPO11 / Fold change vs veh, IPO11 / RFU, DFFB / Fold change vs veh, DFFB / RFU, FOXP1 / Fold change vs veh, FOXP1 / RFU, CARD8 / Fold change vs veh, CARD8 / RFU, STRN3 / Fold change vs veh, STRN3 / RFU, ADK / Fold change vs veh, ADK / RFU, RASSF2 / Fold change vs veh, RASSF2 / RFU, WIPF1 / Fold change vs veh, WIPF1 / RFU, LARP1B / Fold change vs veh, LARP1B / RFU, RASA1 / Fold change vs veh, RASA1 / RFU, RB1 / Fold change vs veh, RB1 / RFU, PPFIA1 / Fold change vs veh, PPFIA1 / RFU, MAT2A / Fold change vs veh, MAT2A / RFU, CCT5 / Fold change vs veh, CCT5 / RFU, WDR92 / Fold change vs veh, WDR92 / RFU, CUX1 / Fold change vs veh, CUX1 / RFU, TTC7A / Fold change vs veh, TTC7A / RFU, TMEM135 / Fold change vs veh, TMEM135 / RFU, DEPTOR / Fold change vs veh, DEPTOR / RFU, CPM / Fold change vs veh, CPM / RFU, DNAJB6 / Fold change vs veh, DNAJB6 / RFU, CACNA2D3 / Fold change vs veh, CACNA2D3 / RFU, DTX4 / Fold change vs veh, DTX4 / RFU, TFCP2 / Fold change vs veh, TFCP2 / RFU, GMCL1 /// GMCL1P1 / Fold change vs veh, GMCL1 /// GMCL1P1 / RFU, AEBP2 / Fold change vs veh, AEBP2 / RFU, SNHG1 /// SNORD22 /// SNORD25 /// SNORD26 /// SNORD27 /// SNORD28 /// SNORD29 /// SNORD31 / Fold change vs veh, SNHG1 /// SNORD22 /// SNORD25 /// SNORD26 /// SNORD27 /// SNORD28 /// SNORD29 /// SNORD31 / Fold change (Aza/veh), C12orf56 (ProbeSet 11735607_a_at) / Fold change (ACY-1035/veh), C12orf56 (ProbeSet 11735607_a_at) / Fold change (Aza/veh), FGFR1OP (ProbeSet 11751329_s_at) / Fold change (ACY-1035/veh), FGFR1OP (ProbeSet 11751329_s_at) / Fold change (Aza/veh), VPS36 (ProbeSet 11739960_a_at) / Fold change (ACY-1035/veh), VPS36 (ProbeSet 11739960_a_at) / RFU SYPL1 (11715823_x_at) / Fold change /veh SYPL1 (11715823_x_at) / RFU IGFBP7 (11715501_s_at) / Fold change /veh IGFBP7 (11715501_s_at) / RFU REEP3 (11722064_at) / Fold change /veh REEP3 (11722064_at) / RFU IGLL1 (11728026_x_at) / Fold change /veh IGLL1 (11728026_x_at): dose or concentration left out as unconfirmed
Conditions: MV-4-11 cells, 48 hours

Nc1ccc(-c2cccs2)cc1NC(=O)c1ccc2c(c1)cc(C1CC1)n2CCN1CCOCC1 [ACY-1035]
RFU PODN (11730768_x_at): 25.60 RFU
